Measurements: paper PMC10046369, “Low-Affinity/High-Selectivity Dopamine Transport Inhibition Sufficient to Rescue Cognitive Functions in the Aging Rat” (Biomolecules, 2023)

Tests used:
ACVR2A = ACVR2A (Homo sapiens, UniProt P27037); experiment: biochemical; set-up: KINOMEscan competition binding panel, per cent of control; details: read-out: %Ctrl @ 2800nM
Experimental: (§1) A panel of binding assays covering 450 human kinases and disease-relevant mutations was performed by DiscoverX (KINOMEscan®, Freemont, CA, USA) according to the standard and validated protocol defined by the contractor. […] Kinase binding assays This study was outsourced to DiscoverX (KINOMEscan®, Freemont, CA, USA) and is compliant with the corresponding project BUY004-01-p-00001. […] Results are reported as percent control (% Ctrl), where lower numbers indicate stronger hits in the matrix on the following page(s). %Ctrl calculation: ((test compound signal-positive control signal) / (negative control signal – positive control signal)) x 100.

ALK(C1156Y) = ALK(C1156Y) (Homo sapiens, UniProt Q9UM73, C1156Y); experiment: biochemical; set-up: KINOMEscan competition binding panel, per cent of control; details: read-out: %Ctrl @ 2800nM
Experimental: as §1

CASK = CASK (Homo sapiens, UniProt O14936); experiment: biochemical; set-up: KINOMEscan competition binding panel, per cent of control; details: read-out: %Ctrl @ 2800nM
Chain of CASK (O14936 whole entry): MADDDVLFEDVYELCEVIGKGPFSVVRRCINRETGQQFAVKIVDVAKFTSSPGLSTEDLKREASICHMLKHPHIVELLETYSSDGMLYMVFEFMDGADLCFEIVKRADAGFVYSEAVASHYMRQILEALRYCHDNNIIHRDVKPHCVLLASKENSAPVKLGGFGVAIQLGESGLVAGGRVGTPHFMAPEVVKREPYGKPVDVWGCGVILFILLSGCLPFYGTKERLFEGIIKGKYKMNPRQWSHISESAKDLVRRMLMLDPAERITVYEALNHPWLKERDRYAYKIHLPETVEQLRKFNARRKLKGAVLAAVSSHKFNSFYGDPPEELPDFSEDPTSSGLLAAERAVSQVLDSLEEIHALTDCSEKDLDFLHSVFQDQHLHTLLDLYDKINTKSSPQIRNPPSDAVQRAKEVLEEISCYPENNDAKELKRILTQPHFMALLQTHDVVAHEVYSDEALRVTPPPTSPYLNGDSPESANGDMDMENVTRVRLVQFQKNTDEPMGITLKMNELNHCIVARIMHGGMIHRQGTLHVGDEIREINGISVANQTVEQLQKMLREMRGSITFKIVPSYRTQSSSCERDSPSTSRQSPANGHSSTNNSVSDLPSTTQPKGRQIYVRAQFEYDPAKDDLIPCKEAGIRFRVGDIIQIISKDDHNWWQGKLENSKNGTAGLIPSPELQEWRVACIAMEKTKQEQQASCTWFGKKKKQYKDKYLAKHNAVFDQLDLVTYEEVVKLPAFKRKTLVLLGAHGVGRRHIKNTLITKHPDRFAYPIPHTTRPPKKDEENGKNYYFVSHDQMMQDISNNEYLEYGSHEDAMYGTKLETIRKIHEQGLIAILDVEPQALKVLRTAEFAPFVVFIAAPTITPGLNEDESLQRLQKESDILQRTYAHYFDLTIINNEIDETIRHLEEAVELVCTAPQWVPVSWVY
Experimental: as §1

ERBB4 = ERBB4 (Homo sapiens, UniProt Q15303); experiment: biochemical; set-up: KINOMEscan competition binding panel, per cent of control; details: read-out: %Ctrl @ 2800nM
Experimental: as §1

FGR = FGR (Homo sapiens, UniProt P09769); experiment: biochemical; set-up: KINOMEscan competition binding panel, per cent of control; details: read-out: %Ctrl @ 2800nM
Experimental: as §1

GRK3 = GRK3 (Homo sapiens, UniProt P35626); experiment: biochemical; set-up: KINOMEscan competition binding panel, per cent of control; details: read-out: %Ctrl @ 2800nM
Experimental: as §1

IKK-beta = biological target: T1, IKK-beta (Homo sapiens, UniProt O14920); experiment: biochemical; set-up: KINOMEscan competition binding panel, per cent of control; details: read-out: %Ctrl @ 2800nM
T1 construct: gene IKBKB
Experimental: as §1

[1] = biological target: T2, JAK3(JH1domain-catalytic) (Homo sapiens, UniProt P52333); experiment: biochemical; set-up: KINOMEscan competition binding panel, per cent of control; details: read-out: %Ctrl @ 2800nM
T2 construct: JH1domain-catalytic
Experimental: as §1

LATS2 = LATS2 (Homo sapiens, UniProt Q9NRM7); experiment: biochemical; set-up: KINOMEscan competition binding panel, per cent of control; details: read-out: %Ctrl @ 2800nM
Experimental: as §1

MLK3 = biological target: T3, MLK3 (Homo sapiens, UniProt Q16584); experiment: biochemical; set-up: KINOMEscan competition binding panel, per cent of control; details: read-out: %Ctrl @ 2800nM
T3 construct: gene MAP3K11
Experimental: as §1

NEK2 = NEK2 (Homo sapiens, UniProt P51955); experiment: biochemical; set-up: KINOMEscan competition binding panel, per cent of control; details: read-out: %Ctrl @ 2800nM
Experimental: as §1

PKAC-alpha = biological target: T4, PKAC-alpha (Homo sapiens, UniProt P17612); experiment: biochemical; set-up: KINOMEscan competition binding panel, per cent of control; details: read-out: %Ctrl @ 2800nM
T4 construct: gene PRKACA
Experimental: as §1

SNARK = biological target: T5, SNARK (Homo sapiens, UniProt Q9H093); experiment: biochemical; set-up: KINOMEscan competition binding panel, per cent of control; details: read-out: %Ctrl @ 2800nM
T5 construct: gene NUAK2
Experimental: as §1

PFCDPK1(P.falciparum) = biological target: T6, PFCDPK1(P.falciparum) (Plasmodium falciparum, UniProt P62344); experiment: biochemical; set-up: KINOMEscan competition binding panel, per cent of control; details: read-out: %Ctrl @ 2800nM
T6 construct: gene CDPK1
T6 sequence (P62344 whole entry): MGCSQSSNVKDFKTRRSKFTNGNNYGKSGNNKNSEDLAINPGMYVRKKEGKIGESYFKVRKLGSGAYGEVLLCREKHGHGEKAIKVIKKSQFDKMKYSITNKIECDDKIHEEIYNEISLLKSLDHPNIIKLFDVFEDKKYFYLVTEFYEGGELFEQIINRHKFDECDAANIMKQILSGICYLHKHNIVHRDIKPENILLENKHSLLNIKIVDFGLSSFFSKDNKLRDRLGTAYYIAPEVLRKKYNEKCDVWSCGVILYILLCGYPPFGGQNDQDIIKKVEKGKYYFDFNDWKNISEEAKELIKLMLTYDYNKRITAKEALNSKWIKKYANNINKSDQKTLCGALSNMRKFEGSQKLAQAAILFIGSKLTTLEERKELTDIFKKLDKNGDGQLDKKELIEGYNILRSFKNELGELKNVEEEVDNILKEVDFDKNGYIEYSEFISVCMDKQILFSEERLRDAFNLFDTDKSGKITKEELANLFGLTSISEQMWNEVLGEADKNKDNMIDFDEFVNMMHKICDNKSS

BB3 = biological target: T7, BB3 (Homo sapiens, UniProt P32247); experiment: cell-based; set-up: Eurofins Cerep functional GPCR screen, antagonist mode, inhibition of control agonist response; details: read-out: % Inhibition of Control Agonist Response, Mean
T7 construct: gene BRS3
T7 sequence (P32247 whole entry): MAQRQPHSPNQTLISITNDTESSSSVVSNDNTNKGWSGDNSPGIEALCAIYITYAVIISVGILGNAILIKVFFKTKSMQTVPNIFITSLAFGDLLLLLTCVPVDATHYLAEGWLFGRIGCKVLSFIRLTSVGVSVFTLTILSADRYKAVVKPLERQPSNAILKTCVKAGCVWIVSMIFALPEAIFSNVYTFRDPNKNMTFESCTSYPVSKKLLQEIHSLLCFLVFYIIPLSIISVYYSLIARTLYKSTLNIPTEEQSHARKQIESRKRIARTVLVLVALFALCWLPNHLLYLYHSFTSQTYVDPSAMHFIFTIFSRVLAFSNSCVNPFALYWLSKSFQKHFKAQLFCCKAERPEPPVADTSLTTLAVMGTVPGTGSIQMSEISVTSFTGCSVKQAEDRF

CCR10 = CCR10 (Homo sapiens, UniProt P46092); experiment: cell-based; set-up: Eurofins Cerep functional GPCR screen, antagonist mode, inhibition of control agonist response; details: read-out: % Inhibition of Control Agonist Response, Mean
CGRP = biological target: T8, CGRP (Homo sapiens, UniProt Q16602); experiment: cell-based; set-up: Eurofins Cerep functional GPCR screen, antagonist mode, inhibition of control agonist response; details: read-out: % Inhibition of Control Agonist Response, Mean
T8 construct: gene CALCRL
T8 sequence (Q16602 whole entry): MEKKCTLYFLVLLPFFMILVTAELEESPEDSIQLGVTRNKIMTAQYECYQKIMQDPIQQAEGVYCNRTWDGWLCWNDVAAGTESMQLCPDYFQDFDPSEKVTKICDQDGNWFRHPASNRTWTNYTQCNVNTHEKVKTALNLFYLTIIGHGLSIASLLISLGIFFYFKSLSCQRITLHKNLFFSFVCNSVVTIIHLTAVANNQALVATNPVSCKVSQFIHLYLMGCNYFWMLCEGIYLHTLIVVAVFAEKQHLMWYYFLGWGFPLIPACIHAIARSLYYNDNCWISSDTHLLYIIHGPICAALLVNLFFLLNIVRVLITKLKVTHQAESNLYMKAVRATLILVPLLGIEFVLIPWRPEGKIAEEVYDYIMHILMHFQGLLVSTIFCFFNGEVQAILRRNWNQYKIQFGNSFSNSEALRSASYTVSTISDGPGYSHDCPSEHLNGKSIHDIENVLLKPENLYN
T8 sequence (O60894 whole entry partner): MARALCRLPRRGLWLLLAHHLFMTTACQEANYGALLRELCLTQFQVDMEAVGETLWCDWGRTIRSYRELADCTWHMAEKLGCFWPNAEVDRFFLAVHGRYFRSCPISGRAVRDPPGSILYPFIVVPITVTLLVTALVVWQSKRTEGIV

CRF1 = biological target: T9, CRF1 (Homo sapiens, UniProt P34998); experiment: cell-based; set-up: Eurofins Cerep functional GPCR screen, antagonist mode, inhibition of control agonist response; details: read-out: % Inhibition of Control Agonist Response, Mean
T9 construct: gene CRHR1
T9 sequence (P34998 whole entry): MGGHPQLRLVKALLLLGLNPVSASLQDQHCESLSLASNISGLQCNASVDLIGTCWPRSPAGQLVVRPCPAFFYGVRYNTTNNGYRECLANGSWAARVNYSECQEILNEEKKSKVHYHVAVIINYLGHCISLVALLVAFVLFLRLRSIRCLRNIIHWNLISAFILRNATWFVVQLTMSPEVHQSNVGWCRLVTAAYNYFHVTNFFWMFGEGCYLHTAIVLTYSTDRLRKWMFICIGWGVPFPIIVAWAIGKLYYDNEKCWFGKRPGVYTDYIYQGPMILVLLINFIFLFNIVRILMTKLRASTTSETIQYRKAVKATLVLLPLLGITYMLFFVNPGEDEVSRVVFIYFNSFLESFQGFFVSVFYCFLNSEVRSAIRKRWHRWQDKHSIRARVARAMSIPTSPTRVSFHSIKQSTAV

CXCR1 = CXCR1 (Homo sapiens, UniProt P25024); experiment: cell-based; set-up: Eurofins Cerep functional GPCR screen, antagonist mode, inhibition of control agonist response; details: read-out: % Inhibition of Control Agonist Response, Mean
CXCR5 = CXCR5 (Homo sapiens, UniProt P32302); experiment: cell-based; set-up: Eurofins Cerep functional GPCR screen, antagonist mode, inhibition of control agonist response; details: read-out: % Inhibition of Control Agonist Response, Mean
CaS = biological target: T10, CaS (Homo sapiens, UniProt P41180); experiment: cell-based; set-up: Eurofins Cerep functional GPCR screen, antagonist mode, inhibition of control agonist response; details: read-out: % Inhibition of Control Agonist Response, Mean
T10 construct: gene CASR
T10 sequence (P41180 whole entry): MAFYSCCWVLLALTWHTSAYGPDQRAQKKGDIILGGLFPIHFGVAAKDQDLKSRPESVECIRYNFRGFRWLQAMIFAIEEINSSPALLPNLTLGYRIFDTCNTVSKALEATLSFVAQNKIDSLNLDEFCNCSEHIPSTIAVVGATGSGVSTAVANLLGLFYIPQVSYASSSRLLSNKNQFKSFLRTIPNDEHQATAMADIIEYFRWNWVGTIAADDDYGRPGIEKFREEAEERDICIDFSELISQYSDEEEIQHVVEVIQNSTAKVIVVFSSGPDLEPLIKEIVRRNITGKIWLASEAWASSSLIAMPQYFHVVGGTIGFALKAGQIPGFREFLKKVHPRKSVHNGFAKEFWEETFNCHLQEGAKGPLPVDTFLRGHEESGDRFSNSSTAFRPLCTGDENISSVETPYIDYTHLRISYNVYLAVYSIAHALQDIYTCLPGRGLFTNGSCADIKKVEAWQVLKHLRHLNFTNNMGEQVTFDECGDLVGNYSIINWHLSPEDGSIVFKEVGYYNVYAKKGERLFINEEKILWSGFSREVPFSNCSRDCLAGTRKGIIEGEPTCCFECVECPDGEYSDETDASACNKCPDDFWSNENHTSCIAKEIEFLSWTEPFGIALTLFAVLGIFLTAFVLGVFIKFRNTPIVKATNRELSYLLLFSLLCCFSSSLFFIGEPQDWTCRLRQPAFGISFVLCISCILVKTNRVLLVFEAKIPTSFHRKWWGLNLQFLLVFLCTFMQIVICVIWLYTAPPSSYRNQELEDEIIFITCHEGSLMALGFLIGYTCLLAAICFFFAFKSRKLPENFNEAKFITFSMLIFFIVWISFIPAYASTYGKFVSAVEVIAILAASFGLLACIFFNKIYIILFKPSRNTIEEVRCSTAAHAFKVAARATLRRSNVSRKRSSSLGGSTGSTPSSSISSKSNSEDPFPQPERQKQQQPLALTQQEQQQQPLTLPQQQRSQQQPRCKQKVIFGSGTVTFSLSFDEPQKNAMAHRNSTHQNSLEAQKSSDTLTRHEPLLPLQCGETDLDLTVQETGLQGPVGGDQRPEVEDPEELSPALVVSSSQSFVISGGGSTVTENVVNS

GPR103/QRFP = biological target: T11, GPR103/QRFP (Homo sapiens, UniProt Q96P65); experiment: cell-based; set-up: Eurofins Cerep functional GPCR screen, antagonist mode, inhibition of control agonist response; details: read-out: % Inhibition of Control Agonist Response, Mean
T11 construct: gene QRFPR

GPR39 = GPR39 (Homo sapiens, UniProt O43194); experiment: cell-based; set-up: Eurofins Cerep functional GPCR screen, antagonist mode, inhibition of control agonist response; details: read-out: % Inhibition of Control Agonist Response, Mean
Chain of GPR39 (O43194 whole entry): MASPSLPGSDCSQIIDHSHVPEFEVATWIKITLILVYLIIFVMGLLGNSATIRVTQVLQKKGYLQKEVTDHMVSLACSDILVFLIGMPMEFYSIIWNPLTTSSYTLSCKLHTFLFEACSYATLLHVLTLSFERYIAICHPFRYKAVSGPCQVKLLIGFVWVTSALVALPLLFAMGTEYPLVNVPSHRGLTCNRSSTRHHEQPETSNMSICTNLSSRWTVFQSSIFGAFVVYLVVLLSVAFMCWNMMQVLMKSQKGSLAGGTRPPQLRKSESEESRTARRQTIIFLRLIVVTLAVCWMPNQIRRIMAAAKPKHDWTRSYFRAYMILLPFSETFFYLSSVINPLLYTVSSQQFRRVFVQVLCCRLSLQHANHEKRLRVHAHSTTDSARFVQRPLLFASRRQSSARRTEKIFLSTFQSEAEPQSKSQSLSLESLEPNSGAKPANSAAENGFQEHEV

Ghrelin / GHSR-1a = biological target: T12, Ghrelin / GHSR-1a (Homo sapiens, UniProt Q92847); experiment: cell-based; set-up: Eurofins Cerep functional GPCR screen, antagonist mode, inhibition of control agonist response; details: read-out: % Inhibition of Control Agonist Response, Mean
T12 construct: GHSR-1a isoform

XCR1 / GPR5 = XCR1 / GPR5 (Homo sapiens, UniProt P46094); experiment: cell-based; set-up: Eurofins Cerep functional GPCR screen, antagonist mode, inhibition of control agonist response; details: read-out: % Inhibition of Control Agonist Response, Mean

Chain of ACVR2A (P27037 whole entry): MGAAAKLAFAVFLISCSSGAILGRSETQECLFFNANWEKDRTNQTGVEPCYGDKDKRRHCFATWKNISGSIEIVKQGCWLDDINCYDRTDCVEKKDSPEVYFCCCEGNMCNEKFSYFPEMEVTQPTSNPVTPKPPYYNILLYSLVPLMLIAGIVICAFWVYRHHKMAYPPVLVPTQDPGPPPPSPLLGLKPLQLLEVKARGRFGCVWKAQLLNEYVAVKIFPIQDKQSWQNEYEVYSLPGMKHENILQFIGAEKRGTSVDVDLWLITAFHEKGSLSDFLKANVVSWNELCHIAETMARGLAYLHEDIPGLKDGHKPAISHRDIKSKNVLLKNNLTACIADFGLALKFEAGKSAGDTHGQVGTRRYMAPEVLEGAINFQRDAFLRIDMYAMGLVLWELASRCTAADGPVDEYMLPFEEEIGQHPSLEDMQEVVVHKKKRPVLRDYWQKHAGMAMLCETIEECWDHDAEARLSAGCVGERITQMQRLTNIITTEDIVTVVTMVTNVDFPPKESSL

[O-][S@@+](Cc1cncs1)C(c1ccccc1)c1ccccc1 [S-CE-123, (S)-5-((Benzhydrylsulfinyl)Methyl)Thiazole]
remaining binding at 2.8 µM (ACVR2A): 100% | remaining binding at 2.8 µM (ALK(C1156Y)): 100% | remaining binding at 2.8 µM (CASK): 82% | remaining binding at 2.8 µM (ERBB4): 96% | remaining binding at 2.8 µM (FGR): 100% | remaining binding at 2.8 µM (GRK3): 100% | remaining binding at 2.8 µM (IKK-beta): 96% | remaining binding at 2.8 µM [1]: 100% | remaining binding at 2.8 µM (LATS2): 100% | remaining binding at 2.8 µM (MLK3): 100% | remaining binding at 2.8 µM (NEK2): 96% | remaining binding at 2.8 µM (PKAC-alpha): 95% | remaining binding at 2.8 µM (SNARK): 100% | remaining binding at 2.8 µM (PFCDPK1(P.falciparum)): 70% | inhibition at 2.8 µM (BB3): 6.2% | inhibition at 2.8 µM (CCR10): -6.9% | inhibition at 2.8 µM (CGRP): -18.8% | inhibition at 2.8 µM (CRF1): -16.9% | inhibition at 2.8 µM (CXCR1): -13% | inhibition at 2.8 µM (CXCR5): -1.9% | inhibition at 2.8 µM (CaS): -6.4% | inhibition at 2.8 µM (GPR103/QRFP): -8.8% | inhibition at 2.8 µM (GPR39): 1.6% | inhibition at 2.8 µM (Ghrelin / GHSR-1a): -11.7% | inhibition at 2.8 µM (XCR1 / GPR5): -9.2%
